Data taken from ChEMBL document CHEMBL1275529, “Improved antimicrobial activity of linezolid against vancomycin-intermediate Staphylococcus aureus” (2008).
Converted amounts (≈) assume the structure as drawn.

Experiments:
Staphylococcus aureus [1] = test: Antibacterial activity against vancomycin-susceptible Staphylococcus aureus AMC11094 after 24 hrs by Etest method; assay type: functional; details: AMC11094, 24 h
Staphylococcus aureus [2] = test: Antibacterial activity against vancomycin-intermediate Staphylococcus aureus BR1 phenotypic revertant after 24 hrs by Etest method; assay type: functional; details: BR1, 24 h
Staphylococcus aureus [3] = test: Antibacterial activity against vancomycin-intermediate Staphylococcus aureus 99/3700-W phenotypic revertant after 24 hrs by Etest method; assay type: functional
Staphylococcus aureus [4] = test: Antibacterial activity against vancomycin-intermediate Staphylococcus aureus 99/3759-V after 24 hrs by Etest method; assay type: functional
Staphylococcus aureus [5] = test: Antibacterial activity against vancomycin-susceptible Staphylococcus aureus MI after 24 hrs by Etest method; assay type: functional
Staphylococcus aureus [6] = test: Antibacterial activity against vancomycin-intermediate Staphylococcus aureus BR1 after 24 hrs by Etest method; assay type: functional; details: BR1, 24 h
Staphylococcus aureus [7] = test: Antibacterial activity against vancomycin-intermediate Staphylococcus aureus MI phenotypic revertant after 24 hrs by Etest method; assay type: functional
Staphylococcus aureus [8] = test: Antibacterial activity against vancomycin-susceptible Staphylococcus aureus BR4 after 24 hrs by Etest method; assay type: functional; details: BR4, 24 h
Staphylococcus aureus [9] = test: Antibacterial activity against vancomycin-intermediate Staphylococcus aureus BR2 after 24 hrs by Etest method; assay type: functional; details: BR2, 24 h
Staphylococcus aureus [10] = test: Antibacterial activity against vancomycin-intermediate Staphylococcus aureus Mu50 phenotypic revertant after 24 hrs by Etest method; assay type: functional; details: Mu50, 24 h
Staphylococcus aureus [11] = test: Antibacterial activity against vancomycin-susceptible Staphylococcus aureus N315-LR5-P1 assessed as inhibition of bacterial growth in brain heart infusion broth medium; assay type: functional
Staphylococcus aureus [12] = test: Antibacterial activity against vancomycin-intermediate Staphylococcus aureus BR5-1 after 24 hrs by Etest method; assay type: functional; details: BR5-1, 24 h
Staphylococcus aureus [13] = test: Antibacterial activity against vancomycin-intermediate Staphylococcus aureus BR4 after 24 hrs by Etest method; assay type: functional; details: BR4, 24 h
Staphylococcus aureus [14] = test: Antibacterial activity against vancomycin-susceptible Staphylococcus aureus NJ after 24 hrs by Etest method; assay type: functional
Staphylococcus aureus [15] = test: Antibacterial activity against vancomycin-susceptible Staphylococcus aureus 99/3759-V after 24 hrs by Etest method; assay type: functional
Staphylococcus aureus [16] = test: Antibacterial activity against vancomycin-susceptible Staphylococcus aureus N315-LR5-P1-3 assessed as inhibition of bacterial growth in Mueller-Hinton broth medium; assay type: functional
Staphylococcus aureus [17] = test: Antibacterial activity against vancomycin-intermediate Staphylococcus aureus 99/3700-W after 24 hrs by Etest method; assay type: functional
Staphylococcus aureus [18] = test: Antibacterial activity against vancomycin-intermediate Staphylococcus aureus LIM2 after 24 hrs by Etest method; assay type: functional; details: LIM2, 24 h
Staphylococcus aureus [19] = test: Antibacterial activity against vancomycin-susceptible Staphylococcus aureus 99/3700-W after 24 hrs by Etest method; assay type: functional
Staphylococcus aureus [20] = test: Antibacterial activity against vancomycin-intermediate Staphylococcus aureus BR5-1 phenotypic revertant after 24 hrs by Etest method; assay type: functional; details: BR5-1, 24 h
Staphylococcus aureus [21] = test: Antibacterial activity against vancomycin-intermediate Staphylococcus aureus LIM2 phenotypic revertant after 24 hrs by Etest method; assay type: functional; details: LIM2, 24 h
Staphylococcus aureus [22] = test: Antibacterial activity against vancomycin-intermediate Staphylococcus aureus 99/3759-V phenotypic revertant after 24 hrs by Etest method; assay type: functional
Staphylococcus aureus [23] = test: Antibacterial activity against vancomycin-susceptible Staphylococcus aureus N315-LR5-P1 assessed as inhibition of bacterial growth in Mueller-Hinton broth medium; assay type: functional
Staphylococcus aureus [24] = test: Antibacterial activity against vancomycin-susceptible Staphylococcus aureus BR5-1 after 24 hrs by Etest method; assay type: functional; details: BR5-1, 24 h
Staphylococcus aureus [25] = test: Antibacterial activity against vancomycin-intermediate Staphylococcus aureus 28160 after 24 hrs by Etest method; assay type: functional; details: Staphylococcus aureus, 28160, 24 h
Staphylococcus aureus [26] = test: Antibacterial activity against vancomycin-intermediate Staphylococcus aureus Mu50 after 24 hrs by Etest method; assay type: functional; details: Mu50, 24 h
Staphylococcus aureus [27] = test: Antibacterial activity against vancomycin-susceptible Staphylococcus aureus 28160 after 24 hrs by Etest method; assay type: functional; details: Staphylococcus aureus, 28160, 24 h
Staphylococcus aureus [28] = test: Antibacterial activity against vancomycin-susceptible Staphylococcus aureus N315-LR5-P1-1 assessed as inhibition of bacterial growth in Mueller-Hinton broth medium; assay type: functional
Staphylococcus aureus [29] = test: Antibacterial activity against vancomycin-susceptible Staphylococcus aureus BR1 after 24 hrs by Etest method; assay type: functional; details: BR1, 24 h
Staphylococcus aureus [30] = test: Antibacterial activity against vancomycin-intermediate Staphylococcus aureus MI after 24 hrs by Etest method; assay type: functional
Staphylococcus aureus [31] = test: Antibacterial activity against vancomycin-susceptible Staphylococcus aureus N315-LR5-P1-4 assessed as inhibition of bacterial growth in brain heart infusion broth medium; assay type: functional; details: N315-LR5-P1-4, Brain
Staphylococcus aureus [32] = test: Antibacterial activity against vancomycin-intermediate Staphylococcus aureus NJ after 24 hrs by Etest method; assay type: functional
Staphylococcus aureus [33] = test: Antibacterial activity against vancomycin-susceptible Staphylococcus aureus N315-LR5-P1-4 assessed as inhibition of bacterial growth in Mueller-Hinton broth medium; assay type: functional
Staphylococcus aureus [34] = test: Antibacterial activity against vancomycin-intermediate Staphylococcus aureus BR3 after 24 hrs by Etest method; assay type: functional; details: BR3, 24 h
Staphylococcus aureus [35] = test: microbe, parasite or virus in culture; details: Staphylococcus aureus, 28160, 24 h
Description: Antibacterial activity against vancomycin-intermediate Staphylococcus aureus 28160 phenotypic revertant after 24 hrs by Etest method

Staphylococcus aureus [36] = test: Antibacterial activity against vancomycin-susceptible Staphylococcus aureus N315-LR5-P1-2 assessed as inhibition of bacterial growth in brain heart infusion broth medium; details: N315-LR5-P1-2, Brain
Staphylococcus aureus [37] = test: Antibacterial activity against vancomycin-intermediate Staphylococcus aureus IL after 24 hrs by Etest method
Staphylococcus aureus [38] = test: Antibacterial activity against vancomycin-intermediate Staphylococcus aureus PC after 24 hrs by Etest method
Staphylococcus aureus [39] = test: Antibacterial activity against vancomycin-intermediate Staphylococcus aureus AMC11094 after 24 hrs by Etest method; details: AMC11094, 24 h
Staphylococcus aureus [40] = test: Antibacterial activity against vancomycin-intermediate Staphylococcus aureus NJ phenotypic revertant after 24 hrs by Etest method
Staphylococcus aureus [41] = test: Antibacterial activity against vancomycin-susceptible Staphylococcus aureus Mu50 after 24 hrs by Etest method; details: Mu50, 24 h

Compound	MIC (Staphylococcus aureus [2])	MIC (Staphylococcus aureus [3])	MIC (Staphylococcus aureus [4])	MIC (Staphylococcus aureus [5])	MIC (Staphylococcus aureus [6])	MIC (Staphylococcus aureus [8])	MIC (Staphylococcus aureus [9])	MIC (Staphylococcus aureus [10])	MIC (Staphylococcus aureus [11])	MIC (Staphylococcus aureus [12])	MIC (Staphylococcus aureus [13])	MIC (Staphylococcus aureus [14])	MIC (Staphylococcus aureus [16])	MIC (Staphylococcus aureus [19])	MIC (Staphylococcus aureus [22])	MIC (Staphylococcus aureus [23])	MIC (Staphylococcus aureus [24])	MIC (Staphylococcus aureus [26])	MIC (Staphylococcus aureus [28])	MIC (Staphylococcus aureus [29])	further results
CC(=O)NC[C@H]1CN(c2ccc(N3CCOCC3)c(F)c2)C(=O)O1 [LINEZOLID]	1.5 µg/mL (≈ 4.45 µM)	1.25 µg/mL (≈ 3.71 µM)	1 µg/mL (≈ 2.96 µM)	3 µg/mL (≈ 8.89 µM)	1.25 µg/mL (≈ 3.71 µM)	3 µg/mL (≈ 8.89 µM)	1 µg/mL (≈ 2.96 µM)	1.5 µg/mL (≈ 4.45 µM)	3 µg/mL (≈ 8.89 µM)	1.5 µg/mL (≈ 4.45 µM)	1.5 µg/mL (≈ 4.45 µM)	3 µg/mL (≈ 8.89 µM)	1.75 µg/mL (≈ 5.19 µM)	3 µg/mL (≈ 8.89 µM)	1.5 µg/mL (≈ 4.45 µM)	3 µg/mL (≈ 8.89 µM)	3 µg/mL (≈ 8.89 µM)	0.38 µg/mL (≈ 1.13 µM)	2.5 µg/mL (≈ 7.41 µM)	1.5 µg/mL (≈ 4.45 µM)	MIC (Staphylococcus aureus [1]): 3 µg/mL (≈ 8.89 µM); MIC (Staphylococcus aureus [7]): 1.5 µg/mL (≈ 4.45 µM); MIC (Staphylococcus aureus [15]): 3 µg/mL (≈ 8.89 µM); MIC (Staphylococcus aureus [17]): 1 µg/mL (≈ 2.96 µM); MIC (Staphylococcus aureus [18]): 1 µg/mL (≈ 2.96 µM); MIC (Staphylococcus aureus [20]): 3 µg/mL (≈ 8.89 µM); MIC (Staphylococcus aureus [21]): 1.5 µg/mL (≈ 4.45 µM); MIC (Staphylococcus aureus [25]): 1.5 µg/mL (≈ 4.45 µM); MIC (Staphylococcus aureus [27]): 3 µg/mL (≈ 8.89 µM); MIC (Staphylococcus aureus [30]): 1.5 µg/mL (≈ 4.45 µM); MIC (Staphylococcus aureus [31]): 1.5 µg/mL (≈ 4.45 µM); MIC (Staphylococcus aureus [32]): 1.25 µg/mL (≈ 3.71 µM); MIC (Staphylococcus aureus [33]): 1.5 µg/mL (≈ 4.45 µM); MIC (Staphylococcus aureus [34]): 1 µg/mL (≈ 2.96 µM)
CN[C@H](CC(C)C)C(=O)N[C@H]1C(=O)N[C@@H](CC(N)=O)C(=O)N[C@H]2C(=O)N[C@H]3C(=O)N[C@H](C(=O)N[C@H](C(=O)O)c4cc(O)cc(O)c4-c4cc3ccc4O)[C@H](O)c3ccc(c(Cl)c3)Oc3cc2cc(c3O[C@@H]2O[C@H](CO)[C@@H](O)[C@H](O)[C@H]2O[C@H]2C[C@](C)(N)[C@H](O)[C@H](C)O2)Oc2ccc(cc2Cl)[C@H]1O [VANCOMYCIN]	3 µg/mL (≈ 2.07 µM)	3 µg/mL (≈ 2.07 µM)	5 µg/mL (≈ 3.45 µM)	1.25 µg/mL (≈ 0.863 µM)	6 µg/mL (≈ 4.14 µM)	1.5 µg/mL (≈ 1.04 µM)	6 µg/mL (≈ 4.14 µM)	8 µg/mL (≈ 5.52 µM)	1.25 µg/mL (≈ 0.863 µM)	5 µg/mL (≈ 3.45 µM)	6 µg/mL (≈ 4.14 µM)	3 µg/mL (≈ 2.07 µM)	2.5 µg/mL (≈ 1.73 µM)	1.5 µg/mL (≈ 1.04 µM)	8 µg/mL (≈ 5.52 µM)	0.75 µg/mL (≈ 0.518 µM)	1.25 µg/mL (≈ 0.863 µM)	6 µg/mL (≈ 4.14 µM)	1.25 µg/mL (≈ 0.863 µM)	1.5 µg/mL (≈ 1.04 µM)	MIC (Staphylococcus aureus [35]): 3 µg/mL (≈ 2.07 µM); MIC (Staphylococcus aureus [36]): 3 µg/mL (≈ 2.07 µM); MIC (Staphylococcus aureus [37]): 6 µg/mL (≈ 4.14 µM); MIC (Staphylococcus aureus [38]): 6 µg/mL (≈ 4.14 µM); MIC (Staphylococcus aureus [39]): 6 µg/mL (≈ 4.14 µM); MIC (Staphylococcus aureus [40]): 5 µg/mL (≈ 3.45 µM); MIC (Staphylococcus aureus [41]): 2.5 µg/mL (≈ 1.73 µM); MIC (Staphylococcus aureus [30]): 8 µg/mL (≈ 5.52 µM); MIC (Staphylococcus aureus [31]): 5 µg/mL (≈ 3.45 µM); MIC (Staphylococcus aureus [32]): 8 µg/mL (≈ 5.52 µM); MIC (Staphylococcus aureus [33]): 3 µg/mL (≈ 2.07 µM); MIC (Staphylococcus aureus [34]): 8 µg/mL (≈ 5.52 µM)
